Reference: US7985764B2, “Amide derivative or salt thereof” (Astellas Pharma Inc., priority 2006, dated 2011)
Structures can show the parent of a compound that is named as a salt.

Assays:
human 5-HT2B receptor = biological target: T1, human 5-HT2B receptor (Homo sapiens, UniProt P41595); test: 5-HT2B receptor binding test; details: human 5-HT2B receptor expressing HEK293-EBNA cell membrane; radio-ligand [3H] Mesulergine or [3H] Serotonin
T1 construct: expressed in transfected cells; host or cells: HEK293-EBNA
Method: Effects of the compound (I) of the present invention were verified by the following pharmacological tests. • Test Method (1) 5-HT2B Receptor Binding Test • (i) Preparation of Membrane Sample
(§1) Cultured human 5-HT2B receptor expressing HEK293-EBNA cells were washed with a phosphate buffer (PBS)(−). The cells were peeled off with a scraper in the presence of PBS(−), and the cells were recovered by centrifugation (1,000 rpm, 10 minutes, 4° C.). In the presence of 5 mM tris-hydrochloric acid (Tris-HCl) (pH 7.4) buffer, homogenized using a homogenizer (registered trademark: Polytron (PTA 10-TS)), and centrifugation-treated (40,000×g, 10 minutes, 4° C.). In the presence of 50 mM Tris-HCl (pH 7.4) buffer, suspended using Glass-Teflon (registered trademark) homogenizer. By carrying out centrifugation treatment (40,000×g, 10 minutes, 4° C.), suspended in 50 mM Tris-HCl (pH 7.4) and stored at −80° C.
(§2) (ii) Receptor Binding Test
A total volume of 500 μl containing 50 mM Tris-HCl, a 4 mM CaCl2 (pH 7.4) buffer, a human 5-HT2B receptor expressing HEK293-EBNA cell membrane preparation and a radio-ligand [^3H] Mesulergine (3.1 TBq/mmol;) or [^3H] Serotonin (5-Hydroxytryptamine) (3.7 TBq/mmol;) was incubated at 25° C. for 1 hour. The compound was dissolved in 100% dimethyl sulfoxide (DMSO) and diluted to respective concentrations. Binding quantity in the presence of 1 μM ritanserin was regarded as the nonspecific binding, and a result of subtracting the nonspecific binding quantity from the total binding quantity was regarded as the specific binding quantity. After adding 4 ml of 50 mM Tris-HCl buffer (pH 7.4) and filtering under a reduced pressure using a GF/B glass filter, the filter was washed (4 ml×3) with the same buffer. By soaking the glass filter in 5 ml of a liquid scintillator (trade name: Aquasol-2), the radioactivity quantity was measured using a liquid scintillation counter. […] Ex represents the Example compound number which is described later.

human 5-HT7 receptor = biological target: T2, human 5-HT7 receptor (Homo sapiens, UniProt P34969); test: 5-HT7 receptor binding test; details: human 5-HT7 receptor expressing CHO cell membrane; radio-ligand [3H] 5-HT
T2 construct: expressed in transfected cells; host or cells: CHO
Method: Test Method (2) 5-HT7 Receptor Binding Test (i) Preparation of Membrane Sample
as §1, with “5-HT7” for “5-HT2B”, “CHO” for “HEK293-EBNA”, “PBS(−).” for “a phosphate buffer (PBS)(−).”, “Tris-HCl” for “tris-hydrochloric acid (Tris-HCl)”
as §2
A total volume of 500 μl containing 50 mM Tris-HCl, a 4 mM CaCl2 (pH 7.4) buffer, a human 5-HT7 receptor expressing CHO cell membrane preparation and a radio-ligand [^3H] 5-HT (3.40 TBq/mmol) was incubated at 25° C. for 1 hour. The compound was dissolved in 100% DMSO and diluted to respective concentrations.
Binding quantity in the presence of 10 μM metergoline was regarded as the nonspecific binding, and a result of subtracting the nonspecific binding quantity from the total binding quantity was regarded as the specific binding quantity. After adding 4 ml of 50 mM Tris-HCl buffer (pH 7.4) and filtering under a reduced pressure using a GF/B glass filter, the filter was washed (4 ml×3) with the same buffer. By soaking the glass filter in 5 ml of a liquid scintillator (trade name: Aquasol-2), the radioactivity quantity was measured using a liquid scintillation counter.

male Wistar rats = test: Defecation suppressing effect at the time of restraint stress loading (rat restraint stress defecation model); type: in vivo; details: for defecation-suppressing action: 10 mg/kg p.o., restraint stress loaded 30 minutes after the administration; for number of feces excreted, in comparison with the non-administration group: 1, 3 or 10 mg/kg administration group, N=10; for dose from which a significant suppressing action (number of feces excreted) is shown: p.o.
Method: Test Method (4) Defecation Suppressing Effect at the Time of Restraint Stress Loading
The IBS-treating effect of the compound (I) of the present invention was evaluated using a test method in which the amount of excreted feces is measured by loading a restraint stress on rats (see “The Journal of Pharmacology Experimental Therapeutics”, (USA), 1992, vol. 261, p. 297-303).
The agent to be tested was administered to male Wistar rats (body weight 250 to 320 g, 10 animals for each group), and a restraint stress was loaded 30 minutes to 3 hours thereafter. A restraint cage (trade name: KN-468, 265 mm in width×95 mm in length×200 mm in height, Natsume Seisakusho, Tokyo) was used for the restraint stress loading, and the number of feces excreted during 1 hour after the stress loading was counted.

5-HT2B receptor = details: versus 5-HT1A, 5-HT1B, 5-HT2A, 5-HT2C, 5-HT3, 5-HT6, 5-HT7, α1, M1, D2 and the like; cited from earlier work
[1] = restraint stress loaded 1 hour after the administration

T1 sequence (P41595 whole entry): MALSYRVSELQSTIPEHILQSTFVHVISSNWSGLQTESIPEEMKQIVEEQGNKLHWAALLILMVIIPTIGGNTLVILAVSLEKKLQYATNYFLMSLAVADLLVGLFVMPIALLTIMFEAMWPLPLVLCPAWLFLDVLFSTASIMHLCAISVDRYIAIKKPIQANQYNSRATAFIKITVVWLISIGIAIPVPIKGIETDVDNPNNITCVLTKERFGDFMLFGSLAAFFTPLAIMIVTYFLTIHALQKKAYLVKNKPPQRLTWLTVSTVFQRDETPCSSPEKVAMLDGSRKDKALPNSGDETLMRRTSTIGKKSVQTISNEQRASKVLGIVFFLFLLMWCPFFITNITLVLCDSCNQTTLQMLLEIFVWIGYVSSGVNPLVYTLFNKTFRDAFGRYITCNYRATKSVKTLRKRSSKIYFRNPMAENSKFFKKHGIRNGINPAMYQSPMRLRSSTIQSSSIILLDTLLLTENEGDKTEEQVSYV
T2 sequence (P34969 whole entry): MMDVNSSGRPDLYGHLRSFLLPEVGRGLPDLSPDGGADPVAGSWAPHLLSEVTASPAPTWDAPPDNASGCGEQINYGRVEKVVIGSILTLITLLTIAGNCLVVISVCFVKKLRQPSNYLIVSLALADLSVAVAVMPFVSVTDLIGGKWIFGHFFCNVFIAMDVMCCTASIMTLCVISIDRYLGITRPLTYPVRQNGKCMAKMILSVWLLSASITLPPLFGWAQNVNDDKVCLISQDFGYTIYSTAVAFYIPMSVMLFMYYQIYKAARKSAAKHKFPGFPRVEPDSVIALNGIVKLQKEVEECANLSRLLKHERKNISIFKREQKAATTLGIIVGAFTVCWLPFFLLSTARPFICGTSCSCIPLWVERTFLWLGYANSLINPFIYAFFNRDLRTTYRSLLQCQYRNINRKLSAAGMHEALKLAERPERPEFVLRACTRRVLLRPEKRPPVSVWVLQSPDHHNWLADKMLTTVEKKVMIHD

CC(=O)c1c(C)n(Cc2ccc(F)cc2)c2ccc(C(=O)N=C(N)N)cc12 [Example 104, 3-acetyl-N-(diaminomethylene)-1-(4-fluorobenzyl)-2-methyl-1H-indole-5-carboxamide]
Ki (human 5-HT2B receptor): 0.088 nM | Ki (human 5-HT7 receptor): 1.3 nM

NC(N)=NC(=O)c1ccc2c(c1)[nH]c(=O)n2Cc1ccc(F)cc1 [Example 10, N-[1-(4-fluoro-benzyl)-2-oxo-2,3-dihydro-1H-benzimidazole-5-carbonyl]-guanidine hydrochloride]
Ki (human 5-HT2B receptor): 2.7 nM | Ki (human 5-HT7 receptor): 2.8 nM

CC(C)c1cc(-c2ccc(F)c3ccccc23)nc(N)n1 [RS-127445, 2-amino-4-(4-fluoronaphth-1-yl)-6-isopropylpyrimidine, reference compound]
defecation-suppressing action (male Wistar rats): did not show defecation-suppressing action | number of feces excreted, in comparison with the non-administration group (male Wistar rats): Significant difference was not found | 5-HT2B receptor-selective by a factor (5-HT2B receptor): ≥ 1000 times

CCc1c(C)n(Cc2ccc(F)cc2)c2ccc(C(=O)N=C(N)N)cc12 [Example 103, N-(diaminomethylene)-3-ethyl-1-(4-fluorobenzyl)-2-methyl-1H-indole-5-carboxamide]
dose from which a significant suppressing action (number of feces excreted) is shown (male Wistar rats; [1]): ≥ 1 mg/kg | Ki (human 5-HT2B receptor): 0.12 nM | Ki (human 5-HT7 receptor): 1.3 nM

CC1CCN(CC[C@H]2CCCN2S(=O)(=O)c2cccc(O)c2)CC1 [SB-269970, (R)-3-(2-(2-(4-methylpiperidin-1-yl)ethyl)pyrrolidine-1-sulfonyl)phenol, reference compound]
defecation-suppressing action (male Wistar rats): did not show the defecation-suppressing action | number of feces excreted, in comparison with the non-administration group (male Wistar rats): Significant difference was not found

Cc1c(C)n(Cc2ccc(F)cc2)c2ccc(C(=O)N=C(N)N)cc12 [Example 24]
Ki (human 5-HT2B receptor): 0.24 nM | Ki (human 5-HT7 receptor): 0.66 nM

CCc1c(C)n(Cc2ccc(F)cc2)c2ccc(C(=O)N[C@@H]3CCN(C)C3)cc12 [Example 238]
Ki (human 5-HT2B receptor): 0.24 nM | Ki (human 5-HT7 receptor): 8 nM

CCc1c(C)n(Cc2ccc(F)cc2)c2ccc(C(=O)NCCN(C)C)cc12 [Example 226]
dose from which a significant suppressing action (number of feces excreted) is shown (male Wistar rats; [1]): ≥ 1 mg/kg | Ki (human 5-HT2B receptor): 0.19 nM | Ki (human 5-HT7 receptor): 4.3 nM

Cc1c(C)n(Cc2ccc(F)cc2)c2ccc(C(=O)NCCN(C)C)cc12 [Example 156]
Ki (human 5-HT2B receptor): 3.4 nM | Ki (human 5-HT7 receptor): 3.4 nM

Cc1c(S(C)(=O)=O)c2cc(C(=O)N=C(N)N)ccc2n1Cc1ccc(F)cc1 [Example 102]
Ki (human 5-HT2B receptor): 0.12 nM | Ki (human 5-HT7 receptor): 0.36 nM

CCc1c(C)n(Cc2ccc(F)cc2)c2ccc(C(=O)N[C@H]3CCN(C)C3)cc12 [Example 236]
dose from which a significant suppressing action (number of feces excreted) is shown (male Wistar rats; restraint stress loaded 3 hours after the administration): ≥ 0.3 mg/kg | Ki (human 5-HT2B receptor): 0.29 nM | Ki (human 5-HT7 receptor): 2.6 nM

Cc1nc2cc(C(=O)N=C(N)N)ccc2n1Cc1ccc(F)cc1 [Example 244, N-(diaminomethylene)-1-(4-fluorobenzyl)-2-methyl-1H-benzimidazol-5-carboxamide]
dose from which a significant suppressing action (number of feces excreted) is shown (male Wistar rats; [1]): ≥ 3 mg/kg

CCc1c(CC)n(Cc2ccc(F)cc2)c2ccc(C(=O)N[C@H]3CCN(C)C3)cc12 [Example 237]
Ki (human 5-HT2B receptor): 0.22 nM | Ki (human 5-HT7 receptor): 4.9 nM
